Assay results taken from patent US20210032633A1, “DRUG FOR CHRONIC INFLAMMATORY DISEASE AND METHOD FOR EVALUATING SUSCEPTIBILITY TO CHRONIC INFLAMMATORY DISEASE” (National University Corporation Hokkaido University, priority 2018, published 2021).

Tests used:
[1] = system: IL-6 mRNA expression in H4 cells; experiment: IL-6 mRNA expression by qPCR in H4 cells stimulated with IL-6 + TNFa (inflammation amplifier); format: cell-based, human; conditions: under IL-6 and TNF-α stimulation, relative to GAPDH, remaining expression vs si-control
Method: (§1) siRNA (GCAAGACAAGAGAUGAUUUtt (SEQ ID No. 23), Ambion Silencer Select siRNA, Thermo Fisher Scientific) against NEDD4 SP3, and control siRNA (Ambion Silencer Select siRNA, Thermo Fisher Scientific) were transfected into a human glioma cell line (H4 cells) using Lipofectamine RNAiMAX (Thermo Fisher Scientific), and NEDD4 SP3 knockdown cells were constructed. After stimulating the control cells and the knockdown cells with IL-6 +TNFa, the IL-6 mRNA expression was measured by qPCR (primer sequence: […] (SEQ ID No. 24) and […] (SEQ ID No.25)). Moreover, the knockdown efficiency was confirmed using the NEDD4 SP3 expression as an index. The expression level indicates the relative amount with respect to the housekeeping gene GAPDH (primer sequence: […] (SEQ ID No.26) and CGCTCCTGGAAGATGGTG (SEQ ID No.27)).

[2] = system: NEDD4 SP3 mRNA; experiment: Knockdown efficiency: NEDD4 SP3 mRNA expression by qPCR in siRNA-transfected H4 cells; format: cell-based, human; conditions: under TNF-α stimulation, relative to GAPDH, remaining expression vs si-control
Method: as §1

GCAAGACAAGAGAUGAUUUtt (SEQ ID No. 23) (GCAAGACAAGAGAUGAUUUTT; chemistry not given here) [NEDD4 si-SP3, siRNA against NEDD4 SP3, Ambion Silencer Select siRNA, Thermo Fisher Scientific]
IL-6 mRNA expression level compared to H4 cells introduced with si-control [1]: 41.0%
NEDD4 SP3 mRNA expression level compared to H4 cells introduced with si-control [2]: 4.2%
